Experimental data reported in paper PMC6476926, “Dichloro-Phenyl-Benzotriazoles: A New Selective Class of Human Respiratory Syncytial Virus Entry Inhibitors” (Frontiers in Chemistry, 2019).

Experiments:
RSV = assay: microbe, parasite or virus in culture; type: cell-based, Human Respiratory Syncytial Virus (RSV) strain A2; details: human respiratory syncytial virus, Vero 76, read-out: EC50 RSV
CV-B5 = assay: microbe, parasite or virus in culture; type: cell-based, Human Enterovirus B [coxsackie type B5 (CV-B5)]; details: Enterovirus B, CVB5, Vero 76, read-out: EC50 CV-B5
BVDV = assay: microbe, parasite or virus in culture; type: cell-based; details: Bovine viral diarrhea virus isolates and strains, MDBK, read-out: EC50 BVDV
Sb-1, VSV, VV, HSV-1 = assay: organism not typed; type: cell-based; details: Vero 76, read-out: EC50 Sb-1, VSV, VV, HSV-1
[1] = Cytotoxicity, MTT method, BHK cells; details: Syrian hamster (Mesocricetus auratus)
[2] = Cytotoxicity, MTT method, MT-4 cells; details: human
in vitro = details: cattle (Bos taurus)
YFV = assay: microbe, parasite or virus in culture; type: cell-based; details: Yellow fever virus, BHK, read-out: EC50 YFV
HIV-1IIIB = assay: microbe, parasite or virus in culture; type: cell-based, Human Immunodeficiency Virus type-1 (HIV-1); details: Human immunodeficiency virus 1, MT4, read-out: EC50 HIV-1IIIB
[3] = Cytotoxicity, MTT method, Vero-76 cells; details: African green monkey (Cercopithecus aethiops)
Reo-1 = assay: microbe, parasite or virus in culture; type: cell-based, Reovirus type-1 (Reo-1); details: Reovirus sp., BHK, read-out: EC50 Reo-1

| Structure (SMILES) | EC50 (RSV) [µM] | EC50 (CV-B5) [µM] | EC50 (BVDV) [µM] | EC50 (Sb-1, VSV, VV, HSV-1) [µM] | CC50 [1] [µM] | CC50 [2] [µM] | melting point [°C] | CC50 (in vitro) [µM] | EC50 (YFV) [µM] | EC50 (HIV-1IIIB) [µM] | CC50 [3] [µM] | CC50 at 5 days [3] [µM] | EC50 (Reo-1) [µM] | CC50 ([2]; MT-4 cells (mock-infected)) [µM] | CC50 ([1]; BHK cells (BHK-21, mock-infected)) [µM] | CC50 ([3]; Vero-76 cells (mock-infected)) [µM] |
| --- | --- | --- | --- | --- | --- | --- | --- | --- | --- | --- | --- | --- | --- | --- | --- | --- |
| CCCCNC(=O)Nc1ccc(-n2nc3cc(Cl)c(Cl)cc3n2)cc1 [10c, 1-[4-(5,6-dichloro-2H-benzo[d][1,2,3]triazol-2-yl)phenyl]-3-butylurea] | > 100 | > 95 | > 100 | > 95 | > 100 | > 100 | > 300 | > 100 | > 100 | > 100 | 90 | > 100 | > 100 |  |  |  |
| O=C(Nc1ccc(-n2nnc3cc(Cl)c(Cl)cc32)cc1)c1ccc([N+](=O)[O-])cc1 [7e, N-[4-(5,6-dichloro-1H-benzo[d][1,2,3]triazol-1-yl)phenyl]-4-nitrobenzamide] | 13 | > 100 | > 100 | > 100 | 96 | > 100 | 238 to 240 | > 100 | > 96 | > 100 |  | > 100 | > 96 |  |  |  |
| O=C1Nc2ccc(Cl)cc2[C@@](C#CC2CC2)(C(F)(F)F)O1 [EFV, Efavirenz, reference compound] |  |  |  |  |  |  |  |  |  | 0.002 ± 0.0002 |  |  |  | 40 |  |  |
| CCC(=O)Nc1ccc(-n2nc3cc(Cl)c(Cl)cc3n2)cc1 [6b, N-[4-(5,6-dichloro-2H-benzo[d][1,2,3]triazol-2-yl)phenyl]propanamide] | > 100 | > 100 | > 100 | > 100 | > 100 | > 100 | 258 to 260 | > 100 | > 100 | > 100 |  | > 100 | > 100 |  |  |  |
| O=C(Nc1ccc(-n2nnc3cc(Cl)c(Cl)cc32)cc1)c1ccc(C(F)(F)F)cc1 [7g, N-[4-(5,6-dichloro-1H-benzo[d][1,2,3]triazol-1-yl)phenyl]-4-(trifluoromethyl)benzamide] | 5 | > 90 | > 100 | > 90 | > 100 | > 100 | > 290 | > 100 | > 100 | > 100 |  | 9 | > 100 |  |  |  |
| O=C(Nc1ccc(F)cc1)Nc1ccc(-n2nc3cc(Cl)c(Cl)cc3n2)cc1 [10i, 1-[4-(5,6-dichloro-2H-benzo[d][1,2,3]triazol-2-yl)phenyl]-3-(4-fluorophenyl)urea] | > 100 | > 100 | > 100 | > 100 | > 100 | > 100 | > 290 | > 100 | > 100 | > 100 |  | > 100 | > 100 |  |  |  |
| COc1ccc(C(=O)Nc2ccc(-n3nc4cc(Cl)c(Cl)cc4n3)cc2)cc1 [8c, N-[4-(5,6-dichloro-2H-benzo[d][1,2,3]triazol-2-yl)phenyl]-4-methoxybenzamide] | > 100 | 14 | > 100 | > 100 |  |  | 274 to 276 | > 100 | > 100 | > 100 |  | > 100 | > 100 | > 100 | > 100 |  |
| Nc1ccc(-n2nnc3cc(Cl)c(Cl)cc32)cc1 [1a, 1-(4-aminophenyl)-5,6-dichlorobenzotriazole] | 20 | 85 | 75 | > 100 | > 100 | > 100 |  | > 100 | > 100 | > 100 |  | > 100 | > 100 |  |  |  |
| Cc1ccc(C(=O)Nc2ccc(-n3nc4cc(Cl)c(Cl)cc4n3)cc2)cc1 [8b, N-[4-(5,6-dichloro-2H-benzo[d][1,2,3]triazol-2-yl)phenyl]-4-methylbenzamide] | 27 | > 100 | > 100 | > 100 | > 100 | > 100 | 210 to 213 | > 100 | 73 | > 100 |  | > 100 | > 100 |  |  |  |
| O=C(Nc1ccc(-n2nc3cc(Cl)c(Cl)cc3n2)cc1)c1ccccc1 [8a, N-[4-(5,6-dichloro-2H-benzo[d][1,2,3]triazol-2-yl)phenyl]benzamide] | > 100 | > 100 | > 100 | > 100 | > 100 | > 100 | > 290 | > 100 | > 100 | > 100 |  | > 100 | > 100 |  |  |  |
| Cc1cc(CCCOc2c(C)cc(-c3noc(C(F)(F)F)n3)cc2C)on1 [PCL, Pleconaril, reference compound] |  | 0.005 ± 0.001 |  |  |  |  |  |  |  |  |  |  |  |  |  | > 100 |
| CCCC(=O)N(C(=O)CCC)c1ccc(-n2nnc3cc(Cl)c(Cl)cc32)cc1 [5d, N-butyryl-N-[4-(5,6-dichloro-1H-benzo[d][1,2,3]triazol-1-yl)phenyl] butyramide] | > 30 | > 20 | > 14 | > 20 | 16 | 35 | 202 to 204 | 14 | > 16 | > 35 |  | 20 | > 16 |  |  |  |
| Nc1ccc(-n2nc3cc(Cl)c(Cl)cc3n2)cc1 [1b, 2-(4-aminophenyl)-5,6-dichlorobenzotriazole] | 6 | > 100 | 20 | > 100 | > 100 | 52 |  | ≥ 100 | > 100 | > 52 |  | > 100 | > 100 |  |  |  |
| C[C@@]1(O)[C@H](O)[C@@H](CO)O[C@H]1n1cnc2c(=O)[nH]c(N)nc21 [2MG, 2’-C-methyl-guanosine, reference compound] |  |  | 1.1 ± 0.1 |  | > 100 |  |  | > 100 | 1.9 ± 0.1 |  |  |  | 0.7 ± 0.2 |  |  |  |
| Cc1ccc(NC(=O)Nc2ccc(-n3nc4cc(Cl)c(Cl)cc4n3)cc2)cc1 [10f, 1-[4-(5,6-dichloro-2H-benzo[d][1,2,3]triazol-2-yl)phenyl]-3-(4-methylphenyl)urea] | > 100 | > 100 | > 100 | > 100 | > 100 | > 100 |  | > 100 | > 100 | > 100 |  | > 100 | > 100 |  |  |  |
